Laboratory results as given in patent US10844044B2 (Vanderbilt University, priority 2018, dated 2020).
Like-named read-outs stand apart in the source and are kept apart here.

Experiments:
WDR5 = WDR5 (Homo sapiens (Human), UniProt P61964); experiment: TR-FRET binding assay (displacement of 10mer-Thr-FAM probe from WDR5); conditions: read-out: Ki for Inhibition of WDR5 by TR-FRET assay
[1] = tested on: MV4:11 human cancer cell lines; experiment: Anti-proliferative activity, CellTiter-Glo viability assay, 7 day protocol; assay type: cell-based; conditions: Homo sapiens, MV4-11, 168 h, MV4:11 cells, 7 day incubation, read-out: GI50 on cellular proliferation of MV4:11 human cancer cell lines
Summary of the method: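 Luminescent CellTiter-Glo readout after 7-day compound exposure of MV4:11 cells plated at 3600 cells/ml (final DMSO 0.1%). GI50 derived from three biological × three technical replicates, reported as mean ± S.E.M.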

[2] = TR-FRET, 10mer-Thr-FAM probe, WDR5-His tag 2 nM, pH 7.0

## COc1cc(OC)cc(C(NC(=O)c2cc(Cn3ccn(C)c3=N)cc(-c3ccnn3C(C)C)c2)C2CC2)c1 (centres unmarked) [Example 118, N-(Cyclopropyl(3,5-dimethoxyphenyl)methyl)-3-((2-imino-3-methyl-2,3-dihydro-1H-imidazol-1-yl)methyl)-5-(1-isopropyl-1H-pyrazol-5-yl)benzamide]
WDR5; [2]
  Ki: 0.83 nM
[1]
  GI50: 6300 nM

## Cc1cc([C@@H](NC(=O)c2cc(CN3CCOC3=N)cc(-c3ccc(F)cc3C(F)(F)F)c2F)C2CC2)ccc1F [Example 283, (S)—N-(Cyclopropyl(4-fluoro-3-methylphenyl)methyl)-2,4′-difluoro-5-((2-iminooxazolidin-3-yl)methyl)-2′-(trifluoromethyl)-[1,1′-biphenyl]-3-carboxamide]
WDR5; [2]
  Ki: 0.02 nM
[1]
  GI50: 120 nM

## Cc1cc([C@@H](NC(=O)c2cc(CN3CCOC3=N)cc(-c3ccc(F)cc3OC(F)F)c2)C2CC2)ccc1F [Example 273, (S)—N-(Cyclopropyl(4-fluoro-3-methylphenyl)methyl)-2′-(difluoromethoxy)-4′-fluoro-5-((2-iminooxazolidin-3-yl)methyl)-[1,1′-biphenyl]-3-carboxamide]
WDR5; [2]
  Ki: < 0.1 nM
[1]
  GI50: 140 nM

## CCOc1c(C(=O)N[C@H](c2ccc(F)c(C)c2)C2CC2)cc(Cn2ccccc2=N)cc1-c1cn(C)nc1C(F)(F)F [Example 347, (S)—N-(Cyclopropyl(4-fluoro-3-methylphenyl)methyl)-2-ethoxy-5-((2-iminopyridin-(2H)-yl)methyl)-3-(1-methyl-3-(trifluoromethyl)-1H-pyrazol-4-yl)benzamide]
WDR5; [2]
  Ki: < 0.1 nM
[1]
  GI50: < 100 nM

## C=C(c1cc(Cn2ccn(C)c2=N)cc(C(=O)N[C@H](c2ccc(F)c(C)c2)C2CC2)c1)C(F)(F)F [Example 192, (S)—N-(cyclopropyl(4-fluoro-3-methylphenyl)methyl)-3-((2-imino-3-methyl-2,3-dihydro-1H-imidazol-1-yl)methyl)-5-(3,3,3-trifluoroprop-1-en-2-yl)benzamide]
WDR5; [2]
  Ki: < 0.1 nM
[1]
  GI50: 500 nM

## CCn1ccn(Cc2cc(C(=O)N[C@H](c3ccc(F)c(C)c3)C3CC3)cc(-c3cccnc3C(F)(F)F)c2)c1=N [Example 114, (S)—N-(Cyclopropyl(4-fluoro-3-methylphenyl)methyl)-3-((3-ethyl-2-imino-2,3-dihydro-1H-imidazol-1-yl)methyl)-5-(2-(trifluoromethyl)pyridin-3-yl)benzamide]
WDR5
  Ki: < 0.1 nM
[1]
  GI50: 300 nM

## Cc1cc([C@@H](NC(=O)c2cc(Cn3ccn(C)c3=N)cc(OC(F)(F)F)c2)C2CC2)ccc1F [Example 179, (S)—N-(Cyclopropyl(4=fluoro-3-methylphenyl)methyl)-3-((2-imino-3-methyl-2,3-dihydro-1H-imidazol-1-yl)methyl)-5-(trifluoromethoxy)benzamide]
WDR5; [2]
  Ki: < 0.1 nM
[1]
  GI50: 230 nM

## CCn1cc(-c2cc(CN3CCOC3=N)cc(C(=O)N[C@H](c3ccc(Cl)c(Cl)c3)C3CC3)c2)c(C(F)(F)F)n1 [Example 281, (S)—N-(Cyclopropyl(3,4-dichlorophenyl)methyl)-3-(1-ethyl-3-(trifluoromethyl)-1H-pyrazol-4-yl)-5-((2-iminooxazolidin-3-yl)methyl)benzamide]
WDR5; [2]
  Ki: < 0.1 nM
[1]
  GI50: < 100 nM

## COc1ccnc(CNC(=O)c2cc(Cn3ccn(C)c3=N)cc(-c3cc(C)ccc3OC)c2)c1 [Example 10, 5-((2-Imino-3-methyl-2,3-dihydro-1H-imidazol-1-yl)methyl)-2′-m ethoxy-N-((4-methoxypyridin-2-yl)methyl)-5′-methyl-[1,1′-biphenyl]-3-carboxamide]
WDR5; [2]
  Ki: 1.5 nM
[1]
  GI50: 2300 nM

## Cn1ccn(Cc2cc(C(=O)NC(CC(=O)O)c3ccc(Cl)c(Cl)c3)nc(-c3ccc(F)cc3C(F)(F)F)c2)c1=N (centres unmarked) [Example 104, 3-(3,4-Dichlorophenyl)-3-(6-(4-fluoro-2-(trifluoromethyl)phenyl)-4-((2-imino-3-methyl-2,3-dihydro-1H-imidazol-1-yl)methyl)picolinamido)propanoic acid]
WDR5; [2]
  Ki: 0.13 nM
[1]
  GI50: 14000 nM

## Cc1cc([C@@H](NC(=O)c2cc(Cn3ccccc3=N)cc(-c3cccnc3C(F)(F)F)c2)C2CC2)ccc1F [Example 342, (S)—N-(Cyclopropyl(4-fluoro-3-methylphenyl)methyl)-3-((2-iminopyridin-1(2H)-yl)methyl)-5-(2-(trifluoromethyl)pyridin-3-yl)benzamide]
WDR5; [2]
  Ki: < 0.1 nM
[1]
  GI50: < 100 nM

## Cc1cc([C@@H](NC(=O)c2cc(Cn3ccoc3=N)cc(-c3ccc(F)cc3C(F)F)c2)C2CC2)ccc1F [Example 274, (S)—N-(Cyclopropyl(4-fluoro-3-methylphenyl)methyl)-2′-(difluoromethyl)-4′-fluoro-5-((2-iminooxazol-3(2H)-yl)methyl)-[1,1′-biphenyl]-3-carboxamide]
WDR5; [2]
  Ki: < 0.1 nM
[1]
  GI50: < 100 nM

## Cc1cc([C@@H](NC(=O)c2cc(Cn3ccsc3=N)cc(-c3cn(C)nc3C(F)(F)F)c2)C2CC2)ncc1F [Example 325, (S)—N-(Cyclopropyl(5-fluoro-4-methylpyridin-2-yl)methyl)-3-((2-iminothiazol-3(2H)-yl)methyl)-5-(1-methyl-3-(trifluoromethyl)-1H-pyrazol-4-yl)benzamide]
WDR5; [2]
  Ki: < 0.1 nM
[1]
  GI50: < 100 nM

## Cn1ccn(Cc2cc(C(=O)N[C@H](c3ccc(F)c(F)c3)C3CC3)cc(-c3cccnc3C(F)(F)F)c2)c1=N [Example 189, (S)—N-(Cyclopropyl(3,4-difluorophenyl)methyl)-3-((2-imino-3-methyl-2,3-dihydro-1H-imidazol-1-yl)methyl)-5-(2-(trifluoromethyl)pyridin-3-yl)benzamide]
WDR5; [2]
  Ki: < 0.1 nM
[1]
  GI50: 120 nM

## Cc1cc(CNC(=O)c2cc(Cn3ccn(C)c3=N)cc(-c3ccc(F)cc3C(F)(F)F)c2F)ccc1Cl [Example 111, N-(4-Chloro-3-methylbenzyl)-2,4′-difluoro-5-((2-imino-3-methyl-2,3-dihydro-1H-imidazol-1-yl)methyl)-2′-(trifluoromethyl)-[1,1′-biphenyl]-3-carboxamide]
WDR5; [2]
  Ki: < 0.1 nM
[1]
  GI50: 300 nM

## Cc1ccnc(C(NC(=O)c2cc(Cn3ccn(C)c3=N)cc(-c3ncc(F)cc3C)c2)C2CC2)c1 (centres unmarked) [Example 69]
WDR5; [2]
  Ki: 2.4 nM
[1]
  GI50: 5100 nM

## COc1ccnc(CNC(=O)c2ccc(F)c(Cn3ccn(C)c3=N)c2)c1 [Example 366, 4-Fluoro-3-((2-imino-3-methyl-2,3-dihydro-1H-imidazol-1-yl)methyl)-N-((4-methoxypyridin-2-yl)methyl)benzamide]
WDR5; [2]
  Ki: 13 nM
[1]
  GI50: 30000 nM

## Cc1cc(C)nc(CNC(=O)c2cc(Cn3ccn(C)c3=N)cc(-c3cccnc3C)c2)n1 [Example 42, N-((4,6-Dimethylpyrimidin-2-yl)methyl)-3-((2-imino-3-methyl-2,3-dihydro-1H-imidazol-1-yl)methyl)-5-(2-methylpyridin-3-yl)benzamide]
WDR5; [2]
  Ki: 10 nM
[1]
  GI50: 28000 nM

## Cc1cc([C@@H](NC(=O)c2cc(Cn3ccn(C)c3=N)cc(-c3cccnc3C(F)(F)F)n2)C2CC2)ccc1F [Example 119, (S)—N-(Cyclopropyl(4-fluoro-3-methylphenyl)methyl)-4-((2-imino-3-methyl-2,3-dihydro-1H-imidazol-1-yl)methyl)-2′-(trifluoromethyl)-[2,3′-bipyridine]-6-carboxamide]
WDR5; [2]
  Ki: 0.16 nM
[1]
  GI50: 7600 nM
